Reference: ChEMBL document CHEMBL4118143, “Discovery of dimethyl pent-4-ynoic acid derivatives, as potent and orally bioavailable DGAT1 inhibitors that suppress body weight in diet-induced mouse obesity model” (Bioorg Med Chem Lett, 2018)
Values after ≈ are worked out from the molar mass of the structure shown. Active and inactive are the calls of the source. The rule behind the calls is not given here.

Assays:
[1] = target: T1, Diacylglycerol O-acyltransferase 1 (Mus musculus, UniProt Q9Z2A7); assay: Inhibition of mouse DGAT1 expressed in insect cell membranes using diacylglycerol/[14C]-oleoyl-CoA as substrate preincubated for 10 mins followed by [14C]-oleoyl-CoA addition measured after 15 mins by scintillation counting method
T1 sequence (Q9Z2A7 whole entry): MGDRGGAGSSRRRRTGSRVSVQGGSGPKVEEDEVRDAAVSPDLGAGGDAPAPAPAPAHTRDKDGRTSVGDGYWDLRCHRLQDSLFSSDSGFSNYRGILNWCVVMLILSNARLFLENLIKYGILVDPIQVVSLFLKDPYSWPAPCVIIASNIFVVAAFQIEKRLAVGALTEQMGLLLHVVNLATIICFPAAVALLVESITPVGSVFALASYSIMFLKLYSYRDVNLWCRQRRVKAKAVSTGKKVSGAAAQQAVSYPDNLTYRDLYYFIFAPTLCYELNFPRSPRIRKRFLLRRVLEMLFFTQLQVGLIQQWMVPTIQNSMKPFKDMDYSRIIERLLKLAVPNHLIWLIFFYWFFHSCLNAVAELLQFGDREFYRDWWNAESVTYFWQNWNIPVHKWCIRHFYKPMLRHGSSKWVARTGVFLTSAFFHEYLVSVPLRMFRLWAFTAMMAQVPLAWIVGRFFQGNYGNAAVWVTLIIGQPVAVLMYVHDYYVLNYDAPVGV

[2] = target: T2, Diacylglycerol O-acyltransferase 1 (Homo sapiens, UniProt O75907); assay: Inhibition of human DGAT1 expressed in insect cell membranes using diacylglycerol/[14C]-oleoyl-CoA as substrate preincubated for 10 mins followed by [14C]-oleoyl-CoA addition measured after 15 mins by scintillation counting method
T2 sequence (O75907 whole entry): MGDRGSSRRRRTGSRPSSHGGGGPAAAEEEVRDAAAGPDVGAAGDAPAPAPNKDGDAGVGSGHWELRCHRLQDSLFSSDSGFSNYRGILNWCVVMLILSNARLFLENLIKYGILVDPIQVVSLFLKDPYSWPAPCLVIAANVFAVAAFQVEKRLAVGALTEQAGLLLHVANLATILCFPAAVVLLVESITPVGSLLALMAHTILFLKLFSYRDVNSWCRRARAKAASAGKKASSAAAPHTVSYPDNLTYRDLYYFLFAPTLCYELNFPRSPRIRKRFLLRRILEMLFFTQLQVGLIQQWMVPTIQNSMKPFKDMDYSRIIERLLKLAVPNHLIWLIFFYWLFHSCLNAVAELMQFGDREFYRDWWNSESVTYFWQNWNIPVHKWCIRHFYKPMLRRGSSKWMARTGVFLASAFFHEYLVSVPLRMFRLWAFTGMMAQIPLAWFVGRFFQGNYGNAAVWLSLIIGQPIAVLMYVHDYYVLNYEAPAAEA

[3] = target: T3, Diacylglycerol O-acyltransferase 2 (Homo sapiens, UniProt Q96PD7); assay: Inhibition of human DGAT2 expressed in insect cell membranes using diacylglycerol/[14C]-oleoyl-CoA as substrate preincubated for 10 mins followed by [14C]-oleoyl-CoA addition measured after 15 mins by scintillation counting method
T3 sequence (Q96PD7 whole entry): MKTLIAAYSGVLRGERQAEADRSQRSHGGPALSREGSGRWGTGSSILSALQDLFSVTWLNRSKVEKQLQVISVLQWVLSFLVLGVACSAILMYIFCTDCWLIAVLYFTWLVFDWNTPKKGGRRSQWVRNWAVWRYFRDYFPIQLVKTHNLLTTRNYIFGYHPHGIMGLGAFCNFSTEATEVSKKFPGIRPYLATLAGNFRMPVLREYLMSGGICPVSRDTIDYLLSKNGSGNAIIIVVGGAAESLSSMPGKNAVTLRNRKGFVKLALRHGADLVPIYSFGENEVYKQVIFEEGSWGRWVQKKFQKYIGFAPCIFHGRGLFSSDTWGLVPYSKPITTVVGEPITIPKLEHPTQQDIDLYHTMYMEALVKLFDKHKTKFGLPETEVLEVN

[4] = target: T2, Diacylglycerol O-acyltransferase 1; assay: Inhibition of DGAT1 in human HEK293 cells using [13C18]oleic acid as substrate assessed as decrease in triacylglycerol synthesis preincubated for 15 mins followed by [13C18]oleic acid addition measured after 2 hrs by LC/MS/MS analysis; format: cell-based
[5] = Solubility of the compound at pH 7.4; format: physicochemical; conditions: buffer
[6] = Protein binding in human plasma; format: ADME, cell-free; conditions: read-out: PPB (converted)
[7] = Intrinsic clearance in human liver microsomes; format: ADME, microsome; conditions: read-out: CLH
[8] = Metabolic stability in human liver microsomes assessed as parent compound remaining measured at 60 mins; format: ADME, microsome; conditions: read-out: Stability
[9] = Intrinsic clearance in mouse liver microsomes; format: ADME, microsome; conditions: read-out: CLH
[10] = Metabolic stability in mouse liver microsomes assessed as parent compound remaining measured at 60 mins; format: ADME, microsome; conditions: read-out: Stability
Cytochrome P450 1A2 = target: T4, Cytochrome P450 1A2 (Homo sapiens, UniProt P05177); assay: Inhibition of CYP1A2 (unknown origin); format: ADME
T4 sequence (P05177 whole entry): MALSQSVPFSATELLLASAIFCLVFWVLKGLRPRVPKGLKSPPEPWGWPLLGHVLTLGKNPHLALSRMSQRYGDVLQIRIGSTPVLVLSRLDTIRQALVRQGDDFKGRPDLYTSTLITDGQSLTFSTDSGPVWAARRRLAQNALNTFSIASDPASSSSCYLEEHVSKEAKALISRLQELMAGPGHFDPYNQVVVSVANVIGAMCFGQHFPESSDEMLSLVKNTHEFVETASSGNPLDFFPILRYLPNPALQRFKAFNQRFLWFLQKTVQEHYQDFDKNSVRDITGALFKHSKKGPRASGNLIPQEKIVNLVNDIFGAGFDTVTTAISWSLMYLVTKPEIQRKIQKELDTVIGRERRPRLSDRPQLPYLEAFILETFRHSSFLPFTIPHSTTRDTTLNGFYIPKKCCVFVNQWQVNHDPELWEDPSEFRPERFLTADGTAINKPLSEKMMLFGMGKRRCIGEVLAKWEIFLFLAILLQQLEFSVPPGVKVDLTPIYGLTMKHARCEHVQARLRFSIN

Cytochrome P450 2C9 = Cytochrome P450 2C9 (Homo sapiens, UniProt P11712); assay: Inhibition of CYP2C9 (unknown origin); format: ADME
Cytochrome P450 2C9, sequence (P11712 whole entry): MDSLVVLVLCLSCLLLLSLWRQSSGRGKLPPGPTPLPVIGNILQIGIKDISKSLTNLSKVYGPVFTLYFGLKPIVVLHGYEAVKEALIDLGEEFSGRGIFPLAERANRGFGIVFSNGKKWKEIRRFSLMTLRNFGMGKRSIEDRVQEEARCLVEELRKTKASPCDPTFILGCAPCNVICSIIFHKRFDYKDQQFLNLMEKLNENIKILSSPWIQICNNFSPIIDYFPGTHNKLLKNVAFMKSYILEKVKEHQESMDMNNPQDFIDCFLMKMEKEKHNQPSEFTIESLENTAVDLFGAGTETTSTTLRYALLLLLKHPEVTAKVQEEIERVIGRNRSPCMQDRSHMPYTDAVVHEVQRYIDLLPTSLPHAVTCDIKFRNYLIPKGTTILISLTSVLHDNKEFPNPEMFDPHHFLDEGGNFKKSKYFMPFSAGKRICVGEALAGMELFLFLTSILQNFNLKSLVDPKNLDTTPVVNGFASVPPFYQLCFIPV

Cytochrome P450 2C19 = Cytochrome P450 2C19 (Homo sapiens, UniProt P33261); assay: Inhibition of CYP2C19 (unknown origin); format: ADME
Cytochrome P450 2C19, sequence (P33261 whole entry): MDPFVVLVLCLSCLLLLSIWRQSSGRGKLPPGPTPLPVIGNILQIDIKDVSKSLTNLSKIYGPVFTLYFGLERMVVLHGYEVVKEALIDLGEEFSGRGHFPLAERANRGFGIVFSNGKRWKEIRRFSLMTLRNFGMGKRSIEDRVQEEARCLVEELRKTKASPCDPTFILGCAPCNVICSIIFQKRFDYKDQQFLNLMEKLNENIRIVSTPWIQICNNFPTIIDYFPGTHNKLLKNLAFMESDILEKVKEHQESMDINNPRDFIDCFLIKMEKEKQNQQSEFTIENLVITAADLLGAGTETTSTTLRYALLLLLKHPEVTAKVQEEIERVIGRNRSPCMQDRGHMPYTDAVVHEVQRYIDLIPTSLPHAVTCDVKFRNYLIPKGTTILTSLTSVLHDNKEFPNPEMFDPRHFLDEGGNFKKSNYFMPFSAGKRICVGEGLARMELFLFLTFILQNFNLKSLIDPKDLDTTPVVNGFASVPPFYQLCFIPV

Cytochrome P450 2D6 = Cytochrome P450 2D6 (Homo sapiens, UniProt P10635); assay: Inhibition of CYP2D6 (unknown origin); format: ADME
Cytochrome P450 2D6, sequence (P10635 whole entry): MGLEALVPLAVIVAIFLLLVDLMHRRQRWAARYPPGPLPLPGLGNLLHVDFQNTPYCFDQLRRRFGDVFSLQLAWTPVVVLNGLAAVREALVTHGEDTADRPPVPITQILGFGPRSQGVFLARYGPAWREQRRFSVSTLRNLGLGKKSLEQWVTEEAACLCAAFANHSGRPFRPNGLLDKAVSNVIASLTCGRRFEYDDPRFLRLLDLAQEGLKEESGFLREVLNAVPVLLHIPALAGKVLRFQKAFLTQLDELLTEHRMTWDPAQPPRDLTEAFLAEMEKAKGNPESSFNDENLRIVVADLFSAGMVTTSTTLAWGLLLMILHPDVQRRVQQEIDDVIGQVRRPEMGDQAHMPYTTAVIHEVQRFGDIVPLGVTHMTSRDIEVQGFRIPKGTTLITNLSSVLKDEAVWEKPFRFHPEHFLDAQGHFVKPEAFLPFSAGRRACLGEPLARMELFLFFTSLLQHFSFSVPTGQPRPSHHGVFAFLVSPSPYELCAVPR

Cytochrome P450 3A4 = Cytochrome P450 3A4 (Homo sapiens, UniProt P08684); assay: Inhibition of CYP3A4 (unknown origin); format: ADME
Cytochrome P450 3A4, sequence (P08684 whole entry): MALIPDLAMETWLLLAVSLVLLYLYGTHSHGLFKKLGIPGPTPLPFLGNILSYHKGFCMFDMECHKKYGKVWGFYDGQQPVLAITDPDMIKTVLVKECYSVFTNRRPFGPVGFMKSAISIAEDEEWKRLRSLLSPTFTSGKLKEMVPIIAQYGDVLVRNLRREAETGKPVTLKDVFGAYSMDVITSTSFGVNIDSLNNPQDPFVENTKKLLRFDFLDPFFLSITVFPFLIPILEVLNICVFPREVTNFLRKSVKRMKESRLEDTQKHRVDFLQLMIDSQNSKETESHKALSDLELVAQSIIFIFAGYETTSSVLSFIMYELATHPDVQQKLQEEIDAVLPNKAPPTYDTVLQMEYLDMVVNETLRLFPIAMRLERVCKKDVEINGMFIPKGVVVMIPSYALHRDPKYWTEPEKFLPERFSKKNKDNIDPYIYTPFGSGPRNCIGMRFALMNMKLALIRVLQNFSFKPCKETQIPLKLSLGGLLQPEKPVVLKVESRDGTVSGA

[11] = Clearance in Sprague-Dawley rat at 0.5 mg/kg, iv; format: ADME, organism-based; conditions: in vivo
[12] = Volume of distribution at steady state in Sprague-Dawley rat at 0.5 mg/kg, iv; format: ADME, organism-based; conditions: in vivo, read-out: Vdss
[13] = Cmax in Sprague-Dawley rat at 10 mg/kg, po; format: ADME, organism-based; design: dose 10 mg/kg, route oral; conditions: in vivo
[14] = Tmax in Sprague-Dawley rat at 10 mg/kg, po; format: ADME, organism-based; conditions: in vivo
[15] = AUC in Sprague-Dawley rat at 10 mg/kg, po; format: ADME, organism-based; conditions: in vivo
[16] = Oral bioavailability in Sprague-Dawley rat at 10 mg/kg; format: ADME, organism-based; conditions: in vivo
[17] = Clearance in CD1 mouse at 0.5 mg/kg, iv; format: ADME, organism-based; conditions: in vivo
[18] = Volume of distribution at steady state in CD1 mouse at 0.5 mg/kg, iv; format: ADME, organism-based; conditions: in vivo, read-out: Vdss
[19] = Cmax in CD1 mouse at 10 mg/kg, po; format: ADME, organism-based; design: dose 10 mg/kg, route oral; conditions: in vivo
[20] = Tmax in CD1 mouse at 10 mg/kg, po; format: ADME, organism-based; conditions: in vivo
[21] = AUC in CD1 mouse at 10 mg/kg, po; format: ADME, organism-based; conditions: in vivo
[22] = Oral bioavailability in CD1 mouse at 10 mg/kg; format: ADME, organism-based; conditions: in vivo
Mus musculus [23] = assay: Inhibition of corn oil-induced plasma triacylglycerol excursion in CD1 mouse at 0.3 to 1 mg/kg administered via oral gavage 30 mins prior to corn oil challenge measured at 2 hrs by lipid tolerance test; format: functional, organism-based
Mus musculus [24] = assay: Antiobesity activity in diet-induced obesity C57BL/6 mouse model assessed as reduction in body weight at 10 mg/kg administered via oral gavage as bid for 7 days; format: functional, organism-based
Mus musculus [25] = assay: Antiobesity activity in diet-induced obesity C57BL/6 mouse model assessed as reduction in cumulative food intake at 10 mg/kg administered via oral gavage as bid for 7 days relative to vehicle-treated control; format: functional; design: scale not given: the % may be the effect or the level left
Mus musculus [26] = assay: Hepatotoxicity in diet-induced obesity C57BL/6 mouse model at 10 mg/kg administered via oral gavage as bid for 7 days; format: toxicity, organism-based; conditions: in vivo, 168 h

CC(C)(C#Cc1ccc(N2CCOc3ncnc(N)c3C2=O)cc1F)CC(=O)O
IC50 [1]: 58 nM

Cc1cc(N2CCOc3ncnc(N)c3C2=O)cc(C)c1C#CC(C)(C)CC(=O)O
IC50 [2]: 21 to 28 nM
IC50 [1]: 12 nM
IC50 [3]: > 50000 nM
EC50 [4]: 26 nM
solubility [5]: 110 µM (≈ 44.9 µg/mL)
fraction unbound [6]: 0.139
CLint scaled [7]: < 9.5 mL/min/kg
remaining at 1 h [8]: 97.6%
CLint scaled [9]: < 38 mL/min/kg
remaining at 1 h [10]: 97.9%
IC50 (Cytochrome P450 1A2): 27600 nM
IC50 (Cytochrome P450 2C9): > 100000 nM
IC50 (Cytochrome P450 2C19): 29700 nM
IC50 (Cytochrome P450 2D6): 27200 nM
IC50 (Cytochrome P450 3A4): 45500 nM
clearance [11]: 4.76 mL/min/kg
Vd [12]: 1.12 L/kg
Cmax [13]: 8700 ng/mL
Tmax [14]: 30 min
AUC [15]: 21000 ng·h/mL
bioavailability [16]: 70%
clearance [17]: 39.3 mL/min/kg
Vd [18]: 2.44 L/kg
Cmax [19]: 521 ng/mL
Tmax [20]: 30 min
AUC [21]: 1250 ng·h/mL
bioavailability [22]: 31%
inhibition (Mus musculus [23]): Active
Activity (Mus musculus [24]): Active
Activity (Mus musculus [25]): 11%
Activity (Mus musculus [26]): Non-Toxic

CCc1cc(N2CCOc3ncnc(N)c3C2=O)ccc1C#CC(C)(C)CC(=O)O
IC50 [1]: 682 nM

COc1cc(N2CCOc3ncnc(N)c3C2=O)ccc1C#CC(C)(C)CC(=O)O
IC50 [1]: 728 nM

CC(C)(C#Cc1ccc(N2CCOc3ncnc(N)c3C2=O)cc1)CC(=O)O
clearance [11]: 14.8 mL/min/kg
Vd [12]: 1.06 L/kg
Cmax [13]: 2160 ng/mL
Tmax [14]: 30 min
AUC [15]: 4100 ng·h/mL
bioavailability [16]: 42%

Cc1cc(N2CCOc3ncnc(N)c3C2=O)cc(Cl)c1C#CC(C)(C)CC(=O)O
IC50 [1]: 14 nM

CC(C)(C#Cc1ccc(N2CCOc3ncnc(N)c3C2=O)cc1OC(F)(F)F)CC(=O)O
IC50 [1]: 92 nM

COc1cc(N2CCOc3ncnc(N)c3C2=O)cc(C)c1C#CC(C)(C)CC(=O)O
IC50 [1]: 96 nM

Cc1cc(N2CCOc3ncnc(N)c3C2=O)cc(F)c1C#CC(C)(C)CC(=O)O
IC50 [1]: 11 nM

Cc1cc(C#CC(C)(C)CC(=O)O)ccc1N1CCOc2ncnc(N)c2C1=O
IC50 [1]: 3760 nM

CC(C)(C#Cc1ccc(N2CCOc3ncnc(N)c3C2=O)cc1Cl)CC(=O)O
IC50 [1]: 26 nM

CCc1cc(N2CCOc3ncnc(N)c3C2=O)cc(CC)c1C#CC(C)(C)CC(=O)O
IC50 [1]: 12 nM

CC(C)(C#Cc1c(Cl)cc(N2CCOc3ncnc(N)c3C2=O)cc1Cl)CC(=O)O
IC50 [1]: 10 nM

CCc1cc(N2CCOc3ncnc(N)c3C2=O)cc(C)c1C#CC(C)(C)CC(=O)O
IC50 [1]: 12 nM

CC(C)(C#Cc1ccc(N2CCOc3ncnc(N)c3C2=O)cc1C(F)(F)F)CC(=O)O
IC50 [1]: 24 nM
